Experimental data as given in patent publication US6436945B2, “Substituted O6-benzyl-8-aza-guanines” (The United States of America as represented by the of …, priority 1994, dated 2002).

Assays:
[1] = biological target: T1, O^6-alkylguanine-DNA alkyltransferase (AGT) (Homo sapiens, UniProt P16455); test: AGT inactivation in intact HT29 cells; settings: for ratio of ED50 values in cell-free extracts/intact cells: HT29; for AGT inactivating activity in intact HT29 cells, in words: comparison
T1 sequence (P16455 1-207): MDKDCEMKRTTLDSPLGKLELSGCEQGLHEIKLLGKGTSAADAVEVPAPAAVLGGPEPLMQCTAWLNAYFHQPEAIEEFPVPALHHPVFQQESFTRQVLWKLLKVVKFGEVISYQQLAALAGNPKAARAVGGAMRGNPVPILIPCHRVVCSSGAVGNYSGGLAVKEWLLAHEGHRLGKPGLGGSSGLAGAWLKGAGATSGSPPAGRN
Method: (§1) The data represent the dose of compound required to produce 50% inactivation in cell-free extracts upon incubation for 30 min or in cells upon incubation for 4 hr.

[2] = biological target: T1, O^6-alkylguanine-DNA alkyltransferase (AGT); test: AGT inactivation in HT29 cell-free extract; settings: for AGT inactivating activity in HT29 cell-free extracts, in words: comparison
Method: as §1

HT-29 colon cancer cells = test: Killing of HT-29 colon cancer cells by BCNU combined with AGT inactivators (colony formation); settings: for Colony Formation per 1000 cells: HT-29
Method: (§2) Cells were treated for 2 h with AGT inactivator prior to exposure to BCNU.

[3] = tested on: MCF-71 breast cancer cells; test: Killing of MCF-71 breast cancer cells by BCNU combined with AGT inactivators (colony formation); settings: BCNU 40 μM
Method: as §2

[4] = tested on: DU-145 prostate cancer cells; test: Killing of DU-145 prostate cancer cells by BCNU combined with AGT inactivators (colony formation); settings: BCNU 40 μM
Method: as §2

Compound | EC50 [1] | EC50 [2] | further results
Nc1cc(OCc2ccccc2)nc(N)n1 [Compound 3b, 2,4-diamino-6-benzyloxypyrimidine] | 5 µM | 15 µM | 
O=c1nc(OCc2ccccc2)c2[nH]cnc2[nH]1 [Compound 4a, O^6-Benzylxanthine] | 35 µM | 60 µM | 
Nc1nc(N)c(Br)c(OCc2ccccc2)n1 [Compound 3f, 2,4-Diamino-6-benzyloxy-5-bromopyrimidine] | 0.8 µM | 2 µM | AGT inactivating activity in HT29 cell-free extracts, in words [2]: considerably more active than 3b
O=NN(CCCl)C(=O)NCCCl [BCNU, 1,3-bis(2-chloroethyl)-1-nitrosourea, reference compound] |  |  | Colony Formation per 1000 cells (HT-29 colon cancer cells; no inactivator, BCNU 40 μM): 442 ± 34 per 1000 cells; effect of agent alone on cell colony number, in words (HT-29 colon cancer cells; statement covers HT29, DU-145 and MCF-71 cells (Tables 3-5)): no significant effect on cell colony number; Colony Formation per 1000 cells ([3]; no inactivator): 364 ± 60 per 1000 cells; Colony Formation per 1000 cells ([4]; no inactivator): 394 ± 76 per 1000 cells
Nc1ncnc(OCc2ccccc2)c1[N+](=O)[O-] [Compound 3a, 4-Amino-6-benzyloxy-5-nitropyrimidine] | 8 µM | 28 µM | 
Fc1nc(OCc2ccccc2)c2nc[nH]c2n1 [Compound 4c, O^6-benzyl-2-fluorohypoxanthine] | 12 µM | 48 µM | 
O=c1nc(OCc2ccccc2)c2[nH]c(=O)[nH]c2[nH]1 [Compound 4b, O^6-Benzyluric acid] | 45 µM | 25 µM | 
Nc1nc(N)c([N+](=O)[O-])c(OCc2ccccc2)n1 [Compound 3e, 2,4-diamino-6-benzyloxy-5-nitropyrimidine] |  |  | enhancement of BCNU cytotoxicity, in words (HT-29 colon cancer cells; BCNU 40 μM, statement covers HT29, DU-145 and MCF-71 cells (Tables 3-5)): similarly effective at a 4-fold lower dose; Colony Formation per 1000 cells (HT-29 colon cancer cells; inactivator 1 μM, BCNU 40 μM): 45 ± 4 per 1000 cells; Colony Formation per 1000 cells (HT-29 colon cancer cells; inactivator […], BCNU 40 μM): <1 per 1000 cells; Colony Formation per 1000 cells ([3]; inactivator […]): 2 ± 1 per 1000 cells; Colony Formation per 1000 cells ([4]; inactivator 1 μM): 59 ± 6 per 1000 cells

Continued, in another order:

EC50 [1] | EC50 [2] | Compound | further results
1 µM | 4 µM | Nc1nc(N)nc(OCc2ccccc2)n1 [Compound 6, 2,4-Diamino-6-benzyloxy-s-triazine] | AGT inactivating activity in HT29 cell-free extracts, in words [2]: considerably more active than 3b
0.08 µM | 0.5 µM | Cn1nnc2c(OCc3ccccc3)nc(N)nc21 [Compound 8a, 8-Aza-O^6-benzyl-9-methylguanine] | ratio of ED50 values in cell-free extracts/intact cells [1]: 6.3; AGT inactivating activity in intact HT29 cells, in words [1]: significantly higher than their activity in cell-free extracts
11 µM | 65 µM | CC(=O)Nc1nc(OCc2ccccc2)c2[nH]c(=O)[nH]c2n1 [Compound 4d, N^2-Acetyl-O^6-benzyl-8-oxoguanine] | 
0.25 µM | 1.9 µM | Cn1c(Br)nc2c(OCc3ccccc3)nc(N)nc21 [Compound 10a, O^6-Benzyl-8-bromo-9-methylguanine] | ratio of ED50 values in cell-free extracts/intact cells [1]: 7.2; AGT inactivating activity in intact HT29 cells, in words [1]: significantly higher than their activity in cell-free extracts
0.05 µM | 0.4 µM | Nc1ncc([N+](=O)[O-])c(OCc2ccccc2)n1 [Compound 5a, 2-Amino-4-benzyloxy-5-nitropyrimidine] | AGT inactivating activity in intact HT29 cells, in words [1]: quite active in cells; AGT inactivating activity in HT29 cell-free extracts, in words [2]: much more active than 3a
110 µM | 200 µM | CN(C)c1nc(OCc2ccccc2)c2nc[nH]c2n1 [Compound 4f, O^6-Benzyl-N^2,N^2-dimethylguanine] | 
0.06 µM | 0.4 µM | Cc1nc(N)nc(OCc2ccccc2)c1[N+](=O)[O-] [Compound 5b, 2-Amino-4-benzyloxy-6-methyl-5-nitropyrimidine] | AGT inactivating activity in intact HT29 cells, in words [1]: quite active in cells
60 µM | 160 µM | CNc1nc(OCc2ccccc2)c2nc[nH]c2n1 [Compound 4e, O^6-Benzyl-N^2-methylguanine] | 
